Read-outs that look alike come from different tables or passages of the source.
Experiments:
[1] = rhesus monkey, in vivo; for Tolerated: po
Procedure: Compound IA (synthesis example 2 herein) was administered orally to groups of rhesus monkeys by continuous and intermittent regimens over periods of days or weeks. Physical signs were recorded and the absence of loose stool, and other overt physical signs, was taken as tolerance.

Aβ [2] = test: CSF levels of Aβ post-dose in rhesus monkey; format: in vivo
[3] = mouse, in vivo, po
Procedure: Compound IIIA (prepared as described in Sparey et al, Bioorg. Med. Chem. Lett. (2005) 15, 4212-4216) was administered orally to groups of mice (n=10) via gavage in 0.5% methylcellulose by a variety of continuous and intermittent regimens over periods of several weeks, and body weights recorded twice-weekly as a measure of tolerance or otherwise of the drug treatment. Less than 20% loss of body weight after 21 days, with no other overt symptoms, was taken as tolerance, and the results are summarised in the following table: […]

Aβ [4] = test: Plasma levels of Aβ after a single dose in mice; format: in vivo; details: single dose of 300 mg/Kg
Procedure: (§1) Compound IIIA (prepared as described in Sparey et al, Bioorg. Med. Chem. Lett. (2005) 15, 4212-4216) was administered orally to groups of mice (n=10) via gavage in 0.5% methylcellulose by a variety of continuous and intermittent regimens over periods of several weeks, and body weights recorded twice-weekly as a measure of tolerance or otherwise of the drug treatment. Less than 20% loss of body weight after 21 days, with no other overt symptoms, was taken as tolerance, and the results are summarised in the following table:
(§2) Plasma levels of Aβ were monitored 4 hours, 1 day, 3 days, 4 days and 7 days after a single dose of 300 mg/Kg, and found to be (respectively), 0%, 0%, 0%, 67% and 85% of the baseline (control) level, indicating prolonged therapeutic efficacy from the single dose. Plasma levels of the drug had declined to zero within 4 days of the single dose.

[5] = Plasma levels of the drug after a single dose in mice; format: in vivo; details: single dose of 300 mg/Kg
Procedure: as §1, §2

Aβ40 = test: CSF Aβ40 in rhesus monkeys, once-weekly dosing; format: in vivo; details: oral, once-weekly 30 mpk, over a 3 week period, relative to vehicle-treated controls
Procedure: (§3) Compound VIB (Example 23 herein) was administered orally to rhesus monkeys once-weekly at a dose of 30 mpk and levels of Aβ40 and Aβ42 in the cerebrospinal fluid (CSF) were monitored.

Aβ42 = test: CSF Aβ42 in rhesus monkeys, once-weekly dosing; format: in vivo; details: oral, once-weekly 30 mpk, over a 3 week period, relative to vehicle-treated controls
Procedure: as §3

[6] = Side effects in rhesus monkeys, once-weekly dosing; format: in vivo; details: oral, once-weekly 30 mpk
Procedure: as §3

O=S(=O)(N[C@H]1C[C@@](c2cc(F)ccc2F)(S(=O)(=O)c2ccc(Cl)cc2)C1)C(F)(F)F [Compound IA, N-[cis-3-[(4-chlorophenyl)sulfonyl]-3-(2,5-difluorophenyl)cyclobutyl]-1,1,1-trifluoromethanesulfonamide]
Tolerance [1]: tolerated | Tolerated ([1]; 3 mg/kg): No | Tolerated ([1]; 50 mg/kg): Yes | Tolerated ([1]; 200 mg/kg): Yes | Effect on CSF levels of Aβ (Aβ [2]; doses below 10 mg/Kg): do not effect Aβ levels appreciably | Effect on CSF levels of Aβ (Aβ [2]; weekly doses): lower CSF Aβ significantly

O=S1(=O)NC2(CN1CC(F)(F)F)C1CCC2Cc2cc(C=CCN3CCC(C(F)(F)F)CC3)ccc2C1 (stereo not shown) [Compound IIIA]
Tolerated ([3]; 50 mg/kg): Yes | Tolerated ([3]; 150 mg/kg): No | Tolerated ([3]; 300 mg/kg): Yes | Plasma levels of Aβ, % of the baseline (control) level (Aβ [4]; 4 hours after dose): 0% | Plasma levels of Aβ, % of the baseline (control) level (Aβ [4]; 1 day after dose): 0% | Plasma levels of Aβ, % of the baseline (control) level (Aβ [4]; 3 days after dose): 0% | Plasma levels of Aβ, % of the baseline (control) level (Aβ [4]; 4 days after dose): 67% | Plasma levels of Aβ, % of the baseline (control) level (Aβ [4]; 7 days after dose): 85% | Time until plasma levels of the drug had declined to zero [5]: ≤ 4 days

O=S(=O)(N[C@H]1CC[C@@](c2cc(F)ccc2C(F)(F)F)(S(=O)(=O)c2ccc(C(F)(F)F)cc2)CC1)C(F)(F)F [Compound VIB, 1,1,1-trifluoro-N-(4-[5-fluoro-2-(trifluoromethyl)phenyl]-4-{[4-(trifluoromethyl)phenyl]sulfonyl}cyclohexyl)methanesulfonamide]
Average reduction in CSF Aβ40 levels (Aβ40): approximately 40% | Average reduction in CSF Aβ42 levels (Aβ42): approximately 40% | GI toxicity ([6]; 3 week period): no evidence of GI toxicity | Other side-effects (study terminated after 3 weeks) ([6]; unconnected with Notch signalling): respiratory side-effects

From patent US20110263580A1, “METHOD FOR TREATING ALZHEIMER'S DISEASE AND RELATED CONDITIONS” (priority 2008, published 2011)
